Experimental data: US20240109912A1, “TRICYCLIC PYRIMIDINES AS CYCLIN-DEPENDENT KINASE 7 (CDK7) INHIBITORS” (JANSSEN PHARMACEUTICA NV, priority 2020, published 2024)
Values joined by “and” are separate entries in the source; they are usually repeats but may differ in a detail not shown here. Identical values can stand only once. Like-named read-outs stand apart in the source and are kept apart here.

What was measured:
[1] = tested on: RNA polymerase II Serine 5 phosphorylation in A549 cells overexpressing CDK7 mutant (C312S); assay: Imaging-based cellular RNA PolII Ser5 phosphorylation assay in A549 cells overexpressing CDK7-mutant (C312S); type: cell-based, human; details: for IC50: Homo sapiens, A549, A549 cells overexpressing CDK7 mutant (C312S), read-out: CDK7_ A549 mutant hCDK7(pIC50) (converted); for CDK7_ A549 mutant hCDK7(pIC50): A549 cells overexpressing CDK7 mutant (C312S)
Procedure, shortened: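 A stably transduced A549 pool overexpressing CDK7 C312S, a mutant that blocks covalent binding at Cys312, while retaining endogenous wild-type CDK7 was used. Ser5 phosphorylation was measured by imaging, and IC50 values were derived.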

[2] = tested on: RNA polymerase II Serine 5 phosphorylation (CDK7) in A549 cells
[3] = target: CDK7/cyclinH/MAT1 trimeric complex (Homo sapiens (Human), UniProt P50613); assay: In vitro CDK7 assay, potency of irreversible covalent inhibitors (kinact/KI)
CDK7/cyclinH/MAT1 trimeric complex, sequence (P50613 whole entry): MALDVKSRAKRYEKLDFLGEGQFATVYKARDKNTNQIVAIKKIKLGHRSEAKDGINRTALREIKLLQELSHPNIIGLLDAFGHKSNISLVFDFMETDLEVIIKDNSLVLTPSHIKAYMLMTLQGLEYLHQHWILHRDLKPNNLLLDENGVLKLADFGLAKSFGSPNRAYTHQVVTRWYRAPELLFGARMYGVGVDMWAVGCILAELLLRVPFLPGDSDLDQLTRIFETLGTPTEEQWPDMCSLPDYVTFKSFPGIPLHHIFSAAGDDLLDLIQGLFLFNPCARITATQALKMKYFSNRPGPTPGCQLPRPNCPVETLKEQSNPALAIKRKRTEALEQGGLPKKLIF
CDK7/cyclinH/MAT1 trimeric complex, sequence (P51946 whole entry partner): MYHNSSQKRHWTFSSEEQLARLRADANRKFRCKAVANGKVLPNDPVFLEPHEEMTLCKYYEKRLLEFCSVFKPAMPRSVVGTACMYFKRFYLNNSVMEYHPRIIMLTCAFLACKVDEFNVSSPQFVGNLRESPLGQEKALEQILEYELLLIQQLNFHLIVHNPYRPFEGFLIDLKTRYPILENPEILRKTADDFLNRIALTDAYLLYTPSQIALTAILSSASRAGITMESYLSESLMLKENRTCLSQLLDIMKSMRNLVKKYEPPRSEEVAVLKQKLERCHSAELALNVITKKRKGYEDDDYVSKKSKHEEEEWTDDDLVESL
CDK7/cyclinH/MAT1 trimeric complex, sequence (P51948 whole entry partner): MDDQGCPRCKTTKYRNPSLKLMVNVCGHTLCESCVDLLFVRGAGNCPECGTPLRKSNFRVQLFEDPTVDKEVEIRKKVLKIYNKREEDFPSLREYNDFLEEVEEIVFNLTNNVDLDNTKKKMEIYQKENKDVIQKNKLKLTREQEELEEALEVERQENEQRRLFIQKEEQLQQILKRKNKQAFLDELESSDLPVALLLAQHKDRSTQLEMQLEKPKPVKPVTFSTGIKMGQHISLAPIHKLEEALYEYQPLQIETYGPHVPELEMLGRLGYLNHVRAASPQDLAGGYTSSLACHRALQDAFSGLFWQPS

[4] = CDK7 (20 nM enz.) (KI, μM), 20 nM enz.
[5] = read-out: CDK7 (20 nM enz.) (kinact, s^−1), 20 nM enz.
[6] = read-out: CDK7 (20 nM enz.) (kinact/ KI, M^−1*s^−1), 20 nM enz.

melting point [°C] | IC50 [1] [nM] | IC50 [2] | Ki [3, 4] | kinact [3, 5] [s⁻¹] | kinact/KI [3, 6] [M⁻¹ s⁻¹] | SMILES | other results
193 | > 10000 | 2340 nM |  |  |  | C=CC(=O)N1CC(N2CC=C(c3ccc4c(c3)Nc3ncnc(N5CCOCC5)c3CO4)CC2)C1 [compound 33] | 
232 | ~10000 | 251 nM |  |  |  | C=CC(=O)N1CC[C@H](N2CC(c3cc(C)c4c(c3)Nc3ncnc(N5CCS(=O)(=O)CC5)c3CO4)C2)C1 [compound 90] | 
241 | > 10000 | 427 nM |  |  |  | C=CC(=O)N1CC[C@@H](N2CC(c3cc(C)c4c(c3)Nc3ncnc(N5CCS(=O)(=O)CC5)c3CO4)C2)C1 [compound 92] | 
151 | > 10000 | > 10000 nM |  |  |  | C=CC(=O)N1CCN(C2CN(c3ccc4c(c3)Nc3ncnc(N5CCOCC5)c3CO4)C2)CC1 [compound 4] | 
 | > 10000 | 513 nM | 0.156 µM | 2.62e-05 | 168 | C#Cc1cc(C2CN([C@H]3CCN(C(=O)C=C)C3)C2)cc2c1O[C@H](C)c1c(ncnc1N1CCS(=O)(=O)CC1)N2 [compound 193] | 
 | > 10000 | 525 nM | 0.295 µM | 3.8e-05 | 129 | C=CC(=O)N1CCC(N2CC(c3cc(C#N)c4c(c3)Nc3ncnc(N5CCOCC5)c3CO4)C2)CC1 [compound 120] | 
 | > 10000 | 324 nM | 0.643 µM | 8.79e-05 | 137 | C=CC(=O)N1CC[C@@H](N2CCC(c3cc(F)c4c(c3)Nc3ncnc(N5CCOCC5)c3CO4)CC2)C1 (single isomer, unassigned) [compound 51] | 
 | > 10000 | 3800 nM |  |  |  | C=CC(=O)N1CC(N2CCN(c3ccc4c(c3)Nc3ncnc(N5CCOCC5)c3CO4)CC2)C1 [compound 6] | Ki ([3]; CDK7 (KI(μM)), Table B): 2.73 µM; kinact ([3]; read-out: CDK7 (kinact, s^−1), Table B): 0.000504 s⁻¹; kinact/KI ([3]; read-out: CDK7 (kinact/KI, M^−1*s^−1), Table B): 185 M⁻¹ s⁻¹
 | > 10000 | 9120 nM |  | 3.36e-06 |  | C=CC(=O)N1CC(N2CCC(c3cc(C)c4c(c3)Nc3ncnc(N5CCC(CCO)C5)c3CO4)CC2)C1 (stereo not drawn) [compound 113] | 
 | > 10000 | 933 nM | 1.04 µM | 6.83e-05 | 65.7 | C=CC(=O)N1CC[C@@H](N2CC(c3cc(F)c4c(c3)Nc3ncnc(N5CCOCC5)c3CO4)C2)C1 (single isomer, unassigned) [compound 55] | 
169 | > 10000 |  | 0.077 µM and 0.0323 µM | 5.87e-05 |  | C=CC(=O)N1CC(N2CCC(c3cc(C)c4c(c3)Nc3ncnc(N5CCS(=O)(=O)CC5)c3CO4)CC2)C1 [compound 101] | CDK7 (20 nM enz.) (kinact, s^−1) ([3]; 20 nM enz.): 8.74e-05 s⁻¹; CDK7 (20 nM enz.) (kobs/[I], M^−1*s^−1) ([3]; 20 nM enz.): 1455 M⁻¹ s⁻¹; kinact/KI ([3]; read-out: CDK7 (20 nM enz.) (kobs/[I], M^−1*s^−1), 20 nM enz.): 1460 M⁻¹ s⁻¹
184 | > 10000 |  | 0.389 µM | 9.1e-05 | 234 | C=CC(=O)N1CC(N2CCC(c3ccc4c(c3)Nc3ncnc(N5CCOCC5)c3CO4)CC2)C1 [compound 1] | Ki ([3]; CDK7 (KI(μM)), Table B): 0.598 µM and 0.167 µM and 0.608 µM and 0.285 µM
 | > 10000 | 191 nM and 269 nM | 0.3 µM and 0.189 µM | 4.57e-05 | 152 | C=CC(=O)N1CC[C@H](N2CC(c3cc(C)c4c(c3)Nc3ncnc(N5CCS(=O)(=O)CC5)c3[C@H](C)O4)C2)C1 (single isomer, unassigned) [compound 116] | CDK7_ A549 mutant hCDK7(pIC50) [1]: <5; CDK7 (20 nM enz.) (kinact, s^−1) ([3]; 20 nM enz.): 3.89e-05 s⁻¹; CDK7 (20 nM enz.) (kinact/ KI, M^−1*s^−1) ([3]; 20 nM enz.): 206.471 M⁻¹ s⁻¹
 |  | 28.2 nM and ~31.6 nM |  |  |  | C=CC(=O)N1CC[C@H](N2CC(c3cc(C)c4c(c3)Nc3ncnc(N5CCS(=O)(=O)CC5)c3[C@@H](C)O4)C2)C1 (single isomer, unassigned) [compound 121] | CDK7_ A549 mutant hCDK7(pIC50) [1]: <5; CDK7 (20 nM enz.) (kinact/ KI, M^−1*s^−1) ([3]; 20 nM enz.): 611.255 M⁻¹ s⁻¹; CDK7 (20 nM enz.) (kobs/[I], M^−1*s^−1) ([3]; 20 nM enz.): 1089.23 M⁻¹ s⁻¹
 | > 10000 | 1580 nM | 1.1 µM | 6.3e-05 | 57.2 | C=CC(=O)N1CC(N2CCC(c3cc(C)c4c(c3)Nc3ncnc(N5CCC(C#N)CC5)c3CO4)CC2)C1 [compound 69] | 
 | > 10000 | 200 nM | 0.302 µM | 7.72e-05 | 256 | C=CC(=O)N1CC[C@H](N2CCC(c3cc(F)c4c(c3)Nc3ncnc(N5CCOCC5)c3CO4)CC2)C1 (single isomer, unassigned) [compound 50] | 
 | > 10000 | 955 nM | 0.632 µM | 5.72e-05 | 90.5 | C=CC(=O)N1CCC(N2CCC(c3ccc4c(c3)Nc3ncnc(N5CCOCC5)c3CO4)CC2)C(F)C1 (stereo not drawn) [compound 15] | 
 | > 10000 | 1050 nM | 1.36 µM | 7.77e-05 | 57.2 | C=CC(=O)N1CC[C@H](N2CC(c3cc(F)c4c(c3)Nc3ncnc(N5CCOCC5)c3CO4)C2)C1 (single isomer, unassigned) [compound 54] | 

Continued, molecule first:

SMILES | melting point [°C] | IC50 [1] [nM] | IC50 [2] | Ki [3, 4] | kinact [3, 5] [s⁻¹] | kinact/KI [3, 6] [M⁻¹ s⁻¹] | other results
C=CC(=O)N1CC(N2CCC(c3cc4c(cn3)O[C@@H](C)c3c(ncnc3N3CCOCC3)N4)CC2)C1 (single isomer, unassigned) [compound 62] | 253 | > 3980 |  | 0.504 µM and 2.05 µM | 5.74e-05 |  | CDK7_ A549 mutant hCDK7(pIC50) [1]: <5.4; CDK7 (20 nM enz.) (kinact, s^−1) ([3]; 20 nM enz.): 4.79e-05 s⁻¹
CC#CC(=O)N1CCC(N2CC(c3cc(C)c4c(c3)Nc3ncnc(N5CCS(=O)(=O)CC5)c3[C@H](C)O4)C2)CC1 (single isomer, unassigned) [compound 125] | 203 | 6760 | ~17.8 nM and ~26.9 nM |  |  |  | CDK7_ A549 mutant hCDK7(pIC50) [1]: 5.26
CC#CC(=O)N1CCC(C)(N2CC(c3cc(C)c4c(c3)Nc3ncnc(N5CCS(=O)(=O)CC5)c3[C@@H](C)O4)C2)C1 (mixture of isomers) [compound 147] | 244 | > 10000 | 309 nM |  |  |  | 
CC#CC(=O)N1CCC(N2CC(c3cc(C)c4c(c3)Nc3ncnc(N5CCS(=O)(=O)CC5)c3[C@@H](C)O4)C2)CC1 (single isomer, unassigned) [compound 124] | 292 | > 10000 | 251 nM and 138 nM |  |  |  | 
CC#CC(=O)N1CCC(N2CC(c3cc(C)c4c(c3)Nc3ncnc(N5CCS(=O)(=O)CC5)c3C(C)O4)C2)CC1 (racemic) [compound 123] | 218 | 8320 | 50.1 nM |  |  |  | 
C#Cc1cc(C2CCN(C3CN(C(=O)C#CC)C3)CC2)cc2c1O[C@H](C)c1c(ncnc1N1CCS(=O)(=O)CC1)N2 [compound 192] |  | > 10000 | 457 nM | 0.856 µM | 8.38e-05 | 103 | 
C=CC(=O)N1CC(N2CCC(c3cc4c(cn3)O[C@H](C)c3c(ncnc3N3CCOCC3)N4)CC2)C1 (single isomer, unassigned) [compound 83] |  |  | 138 nM | 0.059 µM |  |  | CDK7_ A549 mutant hCDK7(pIC50) [1]: <5.4; CDK7 (20 nM enz.) (kinact, s^−1) ([3]; 20 nM enz.): 2.22e-05 s⁻¹; CDK7 (20 nM enz.) (kinact/ KI, M^−1*s^−1) ([3]; 20 nM enz.): 376.933 M⁻¹ s⁻¹
C#Cc1cc(C2CCN(C3CN(C(=O)C#CC)C3)CC2)cc2c1O[C@@H](C)c1c(ncnc1N1CCS(=O)(=O)CC1)N2 [compound 191] |  | > 10000 | 191 nM | 0.1 µM | 8.29e-05 | 809 | 
C=CC(=O)N1CC(N2CC[C@@H](c3cc4c(c(C)n3)OCc3c(ncnc3N3CCS(=O)(=O)CC3)N4)C2)C1 [compound 30] |  | > 10000 | 1510 nM | 0.175 µM | 5.79e-05 | 330 | 
C=CC(=O)N1CCC(N2CC(c3cc(C)c4c(c3)Nc3ncnc(N5CCS(=O)(=O)CC5)c3[C@H](C)O4)C2)CC1 (single isomer, unassigned) [compound 100] | 226 | ~6610 |  |  |  |  | CDK7_ A549 mutant hCDK7(pIC50) [1]: 5.25 and 5.24 and 5.16
C#Cc1cc(C2CCN(C3CN(C(=O)C=C)C3)CC2)cc2c1O[C@H](C)c1c(ncnc1N1CCS(=O)(=O)CC1)N2 (single isomer, unassigned) [compound 189] |  | > 10000 | 195 nM and 200 nM | 0.0806 µM | 8.1e-05 | 879 | 
C=CC(=O)N1CC(N2CCC(c3cc(C)c4c(c3)Nc3ncnc(-c5cncc(OCC)c5)c3CO4)CC2)C1 [compound 82] |  | > 10000 | 1260 nM | 1.28 µM | 4.27e-05 | 33.4 | 
C=CC(=O)N1CCC(N2CC(c3cc(C#N)c4c(c3)Nc3ncnc(-c5cnn(C)c5)c3CO4)C2)CC1 [compound 73] |  | > 10000 | 1660 nM | 1.24 µM | 3.75e-05 | 30.2 | 
[2H]C1(N2CCC(c3cc(C)c4c(c3)Nc3ncnc(N5CCS(=O)(=O)CC5)c3[C@@H](C)O4)CC2)CN(C(=O)C#CC)C1 [compound 160] |  | > 10000 | 115 nM | 0.0135 µM | 9.88e-05 | 7340 | 
C=CC(=O)N1CCC(N2CC(c3cc(C)c4c(c3)Nc3ncnc(N5CCS(=O)(=O)CC5)c3[C@@H](C)O4)C2)CC1 (single isomer, unassigned) [compound 102] | 227 | > 10000 | 186 nM and 174 nM and 151 nM and 148 nM |  |  |  | 
